The values that follow come from US20240108636A1, “COMPOSITIONS FOR TREATMENT OF NEURODEGENERATIVE CONDITIONS” (BIOVIE INC., priority 2021, published 2024).

The test system of series [1] is levodopa-induced dyskinesia (LID). Nature of the series: Abnormal involuntary movements score (AIMS), levodopa-induced dyskinesia in MPTP marmosets. The series is classed as in vivo, marmoset monkeys (Callithrix jacchus). The settings on record: for AIMS: Week 12, in combination with levodopa 10 mg/kg, items scored 0-4; for Abnormal involuntary movements scores (AIMS) in combination with levodopa: Week 12, levodopa 5, 7.5, 10, 12.5 or 25 mg/kg, FIG. 2. The protocol:
(§1) The severity of LID was measured by abnormal involuntary movements score (AIMS) adapted to the primate PD model. The items include assessment of extremity and trunk movements, facial expression, and movement of the lips, peri-oral area, tongue, and jaw. These symptoms were scored on a scale from 0 (normal), 1 ([…]), 2 (mild), 3 (moderate) to 4 (severe). Measurement of parkinsonian behaviors continued as previously described. […] The subjects were exsanguinated under deep anaesthesia with Alphaxan (18 mg/kg i.m.). Immediately thereafter, the subjects were euthanized with EUTHASOL (pentobarbital natrium, i.c.). The brain of each subject was removed and frozen for immunohistochemical analyses. SNpc was analyzed for the presence of DA positive neurons with tyrosine hydroxylase immune reactive (TH-IR) staining.

Series [2] deals with MPTP model of Parkinson's disease. As to the kind of experiment: Immobility score, MPTP model of Parkinson's disease in marmoset monkeys. The series is classed as in vivo, marmoset monkeys (Callithrix jacchus). The settings on record: for Mean immobility score: 0-4 scale. From the text:
(§2) The 1-methyl-4-phenyl-1,2,3,6-tetrahydropyridine (MPTP) model that was used is capable of reducing striatal dopamine levels to 5% of normal controls. The MPTP model was used to produce Parkinson's-like disease symptoms in three sequential independent cohorts of six marmosets monkeys (Callithrix jacchus, approximately 0.3-0.5 kg, 2-5 years) which were then observed for 3 weeks to confirm the absence of parkinsonian behavior and motor abnormalities. A single dose of 17-EAT or amantadine was administered at the beginning of Week 4 to confirm the absence of behavioral side effects. All subjects received subcutaneous injections of 1-2 mg/kg MPTP on Days 3, 4, and 5 of Week 5 and Day 1 and 3 of Week 6 for a total of 6.5 mg/kg MPTP and were observed through the end of Week 7 without further treatment, then randomized for treatment.
Oral administration of treatment of vehicle, amantadine, or 17-EAT formulated in acacia syrup began at the start of Week 8. Vehicle controls received acacia syrup only. Amantadine HCl (Sigma Aldrich, A1260-SG) was administered daily at a dose of 1 mg/kg. 17-EAT was administered daily at a dose of 30 mg/kg. In Weeks 8 and 9 test compound activity against parkinsonian behavior was observed several times daily for effects on clinical signs (lack of grooming, apathy, immobility, muscle rigidity, and tremor activity) and given an immobility score on a 0-4 scale, with 0 being normal and 4 being the most severe score. Ratings were performed by study personnel blind to treatment.

For series [3], the system named is tyrosine hydroxylase positive neurons. Nature of the series: Surviving tyrosine hydroxylase positive neurons in substantia nigra of MPTP marmosets. The conditions noted are these: Week 14, substantia nigra; FIG. 3. The format is in vivo, marmoset monkeys (Callithrix jacchus). The protocol:
as §1
In Week 14, all subjects were sacrificed and tissue samples from the substantia nigra were evaluated to measure the number of surviving tyrosine hydroxylase positive neurons. The increase in number of surviving TH+ neurons for subjects treated with amantadine and 17-EAT was 40% and 75%, as shown in FIG. 3.

The nature of series [4]: Body weight of MPTP marmosets. The conditions noted are these: FIG. 4. The format is in vivo, marmoset monkeys (Callithrix jacchus).
From the text: as §2
Oral administration of treatment of vehicle, amantadine, or 17-EAT formulated in acacia syrup began at the start of Week 8. Vehicle controls received acacia syrup only. Amantadine HCl (Sigma Aldrich, A1260-SG) was administered daily at a dose of 1 mg/kg. 17-EAT was administered daily at a dose of 30 mg/kg. […]

For series [5], the system named is rodent models of systemic inflammation and neuroinflammation. The conditions noted are these: cited from earlier work.
The subject of series [6] is TNF, IL-1b, IL-6, and other inflammatory cytokines. The conditions noted are these: cited from earlier work.
The mark [7] stands for this setting: Week 7, prior to treatment, 0 normal, 4 most severe.
[8] abbreviates: Week 8, monotherapy, oral daily (amantadine 1 mg/kg, 17-EAT 30 mg/kg).
Where [9] appears, read: Week 9, monotherapy, oral daily (amantadine 1 mg/kg, 17-EAT 30 mg/kg).

Structures can show the parent of a compound that is named as a salt.

Consider `N[C@@H](Cc1ccc(O)c(O)c1)C(=O)O` [Levodopa, L-3,4-dihydroxyphenylalanine], for which, in series [1] (levodopa 12.5 mg/kg BID), the LID expression entry is on record as “induced LID expression in all subjects”.

As to `NC12CC3CC(CC(C3)C1)C2` [Amantadine, Amantadine HCl], the AIMS in series [1] is given as 4.5. Further, the “Abnormal involuntary movements scores (AIMS) in combination with levodopa” value in series [1] is given as “improved compared to monotherapy”. Further, the figures for the Mean immobility score in series [2] (setting [7]), in series [2] (setting [8]) and in series [2] (setting [9]) were 2.59, 2.74 and 2.72, respectively. For the same compound, the “Increase in number of surviving TH+ neurons” value in series [3] was 40%.

Turning to `C#C[C@]1(O)CC[C@H]2[C@@H]3[C@@H](O)C=C4C[C@@H](O)CC[C@]4(C)[C@H]3CC[C@@]21C` [Compound 17-EAT, 17-ethynyl-10R, 13S-dimethyl 2,3,4,7, 8R, 9S, 10, 11, 12, 13, 14S, 15, 16, 17-hexadecahydro-1H-cyclopenta[a]phenanthrene-3R, 7R, 17S-triol], in series [1], the AIMS came to 2.1. The “Abnormal involuntary movements scores (AIMS) in combination with levodopa” value in series [1] is given as “improved compared to monotherapy”. Besides, in series [4], the Mean body weight entry was “maintained a higher mean body weight compared to either vehicle or amantadine”. In addition, the Mean immobility score was found to be 2.72 in series [2] (setting [7]), 2.26 in series [2] (setting [8]) and 2.10 in series [2] (setting [9]). In addition, in series [2] (combination with levodopa 5, 7.5, 10, 12.5 or 25 mg/kg, FIG. 1), the “Mean immobility scores in combination with levodopa” value is listed as “improved compared to 17-EAT monotherapy”. Besides, the “Activity in rodent models of neurological disease” value in series [5] (Parkinson's disease, experimental autoimmune encephalomyelitis, optic neuritis, glaucoma) was “anti-neuroinflammatory or neuroprotective activity”. Moreover, the “Activity in rodent models of systemic inflammation” value in series [5] (type 2 diabetes, COPD, rheumatoid arthritis) is on record as “active in rodent models of systemic inflammation”. The “Increase in number of surviving TH+ neurons” value in series [3] is 75%. In series [6], the “Expression of TNF, IL-1b, IL-6, and other inflammatory cytokines” value is reported as “decreases expression”.
